Results taken from US11820766B2, “Monoacylglycerol lipase modulators” (Janssen Pharmaceutica NV, priority 2018, dated 2023).

Target: T1, human MGL from HeLa cells (Homo sapiens, UniProt Q99685)
T1 construct: combining endogenously expressed MGL from HeLa cells with test compounds; endogenous in cells; host or cells: HeLa cells / cell homogenates
T1 sequence (Q99685 1-303): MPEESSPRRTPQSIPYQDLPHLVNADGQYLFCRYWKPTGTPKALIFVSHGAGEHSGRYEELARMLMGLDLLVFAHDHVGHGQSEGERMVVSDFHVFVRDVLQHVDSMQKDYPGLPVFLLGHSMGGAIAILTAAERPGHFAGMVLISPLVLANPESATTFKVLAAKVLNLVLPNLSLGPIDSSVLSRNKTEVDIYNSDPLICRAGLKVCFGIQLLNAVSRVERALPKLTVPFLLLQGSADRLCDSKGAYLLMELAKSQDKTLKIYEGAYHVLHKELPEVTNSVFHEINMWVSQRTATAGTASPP
Assay: In vitro MGL activity assay: [glycerol-1,3-3H]-oleyl glycerol cleavage by MGL from HeLa cells
Assay type: biochemical
Conditions: 300 nM [Glycerol-1,3-3H]-oleyl glycerol, one hour
Text: MGL is the predominant hydrolase in HeLa cells/cell homogenates.

Row | Compound | IC50
1 | Cc1c(C(=O)N2CCc3c(nn(C)c3-c3cc(F)c(F)c(F)c3)[C@@H]2C)nn2c1COC(C)(C)C2 [Example 557, [(7S)-2,7-Dimethyl-3-(3,4,5-trifluorophenyl)-5,7-dihydro-4H-pyrazolo[3,4-c]pyridin-6-yl]-(3,6,6-trimethyl-4,7-dihydropyrazolo[5,1-c][1,4]oxazin-2-yl)methanone] | 1840 nM
2 | C[C@H]1c2nn(C)c(-c3ccc(OC(F)(F)F)cc3)c2CCN1C(=O)c1ccc2ncccc2c1 [Example 500, [(7S)-2,7-Dimethyl-3-[4-(trifluoromethoxy)phenyl]-5,7-dihydro-4H-pyrazolo[3,4-c]pyridin-6-yl]-(6-quinolyl)methanone] | 75.7 nM
3 | Cc1cccc2c(C(=O)N3CCc4c(nn(C)c4-c4cc(F)c(F)c(F)c4)[C@@H]3C)c(C3CC3)nn12 [Example 385, (2-Cyclopropyl-7-methyl-pyrazolo[1,5-a]pyridin-3-yl)-[(7S)-2,7-dimethyl-3-(3,4,5-trifluorophenyl)-5,7-dihydro-4H-pyrazolo[3,4-c]pyridin-6-yl]methanone] | 120 nM
4 | C[C@H]1c2nn(C)c(-c3cc(F)c(F)c(F)c3)c2CCN1C(=O)c1ncnc2c1ncn2C [Example 606, [(7S)-2,7-Dimethyl-3-(3,4,5-trifluorophenyl)-5,7-dihydro-4H-pyrazolo[3,4-c]pyridin-6-yl]-(9-methylpurin-6-yl)methanone] | 724 nM
5 | C[C@H]1c2nn(C)c(-c3cc(F)c(F)c(F)c3)c2CCN1C(=O)c1ccc2c(n1)COCC2 [Example 566, 6,8-Dihydro-5H-pyrano[3,4-b]pyridin-2-yl-[(7S)-2,7-dimethyl-3-(3,4,5-trifluorophenyl)-5,7-dihydro-4H-pyrazolo[3,4-c]pyridin-6-yl]methanone] | 533 nM
6 | C[C@H]1c2nn(C)c(-c3ccc(Cl)c(Cl)c3)c2CCN1C(=O)c1ccc2ncccc2c1 [Example 507, [(7S)-3-(3,4-Dichlorophenyl)-2,7-dimethyl-5,7-dihydro-4H-pyrazolo[3,4-c]pyridin-6-yl]-(6-quinolyl)methanone] | 15.2 nM
7 | Cc1cnn2nc(C3CC3)c(C(=O)N3CCc4c(nn(C)c4-c4cc(F)c(F)c(F)c4)[C@@H]3C)c2c1 [Example 445, (2-Cyclopropyl-5-methyl-pyrazolo[1,5-b]pyridazin-3-yl)-[(7S)-2,7-dimethyl-3-(3,4,5-trifluorophenyl)-5,7-dihydro-4H-pyrazolo[3,4-c]pyridin-6-yl]methanone] | 525 nM
8 | Cc1c(C(=O)N2CCc3c(nn(C)c3-c3cc(F)c(F)c(F)c3)[C@@H]2C)nn2c1OCCC2 [Example 555, [(7S)-2,7-Dimethyl-3-(3,4,5-trifluorophenyl)-5,7-dihydro-4H-pyrazolo[3,4-c]pyridin-6-yl]-(3-methyl-6,7-dihydro-5H-pyrazolo[5,1-b][1,3]oxazin-2-yl)methanone] | 183 nM
9 | C[C@H]1c2nn(C)c(-c3cc(F)c(F)c(F)c3)c2CCN1C(=O)c1cnc2cc(F)ccn12 [Example 393, [(7S)-2,7-Dimethyl-3-(3,4,5-trifluorophenyl)-5,7-dihydro-4H-pyrazolo[3,4-c]pyridin-6-yl]-(7-fluoroimidazo[1,2-a]pyridin-3-yl)methanone] | 252 nM
10 | C[C@H]1c2nn(C)c(-c3cc(F)c(F)c(F)c3)c2CCN1C(=O)c1ccnc2[nH]ncc12 [Example 422, [(7S)-2,7-Dimethyl-3-(3,4,5-trifluorophenyl)-5,7-dihydro-4H-pyrazolo[3,4-c]pyridin-6-yl]-(1H-pyrazolo[3,4-b]pyridin-4-yl)methanone] | 45.9 nM
11 | C[C@H]1c2nn(C)c(-c3cc(F)c(F)c(F)c3)c2CCN1C(=O)c1ncnc2c(F)cccc12 [Example 481, [(7S)-2,7-Dimethyl-3-(3,4,5-trifluorophenyl)-5,7-dihydro-4H-pyrazolo[3,4-c]pyridin-6-yl]-(8-fluoroquinazolin-4-yl)methanone] | 5.2 nM
12 | Cc1cn2c(C(=O)N3CCc4c(nn(C)c4-c4cc(F)c(F)c(F)c4)[C@@H]3C)cccc2n1 [Example 394, [(7S)-2,7-Dimethyl-3-(3,4,5-trifluorophenyl)-5,7-dihydro-4H-pyrazolo[3,4-c]pyridin-6-yl]-(2-methylimidazo[1,2-a]pyridin-5-yl)methanone] | 140 nM
13 | C[C@H]1c2nn(C)c(-c3cc(F)c(F)c(F)c3)c2CCN1C(=O)c1ccc2c(c1)OCCC2 [Example 582, Chroman-7-yl-[(7S)-2,7-dimethyl-3-(3,4,5-trifluorophenyl)-5,7-dihydro-4H-pyrazolo[3,4-c]pyridin-6-yl]methanone] | 7.52 nM
14 | C[C@H]1c2nn(C)c(-c3cc(F)c(F)c(F)c3)c2CCN1C(=O)c1cccc2oc(=O)n(C)c12 [Example 585, 4-[(7S)-2,7-Dimethyl-3-(3,4,5-trifluorophenyl)-5,7-dihydro-4H-pyrazolo[3,4-c]pyridine-6-carbonyl]-3-methyl-1,3-benzoxazol-2-one] | 25.4 nM
15 | C[C@H]1c2nn(C)c(-c3cc(F)c(F)c(F)c3)c2CCN1C(=O)c1ccc2c(c1)CCCO2 [Example 580, Chroman-6-yl-[(7S)-2,7-dimethyl-3-(3,4,5-trifluorophenyl)-5,7-dihydro-4H-pyrazolo[3,4-c]pyridin-6-yl]methanone] | 19.6 nM
16 | C[C@H]1c2nn(C)c(-c3cccc(F)c3F)c2CCN1C(=O)c1ccc2ncccc2c1 [Example 503, [(7S)-3-(2,3-Difluorophenyl)-2,7-dimethyl-5,7-dihydro-4H-pyrazolo[3,4-c]pyridin-6-yl]-(6-quinolyl)methanone] | 22 nM
17 | COc1ncc(-c2c3c(nn2C)[C@H](C)N(C(=O)c2ccc4ncccc4c2)CC3)cc1C(F)(F)F [Example 530, [(7S)-3-[6-Methoxy-5-(trifluoromethyl)-3-pyridyl]-2,7-dimethyl-5,7-dihydro-4H-pyrazolo[3,4-c]pyridin-6-yl]-(6-quinolyl)methanone] | 130 nM

Same assay, conditions: 300 nM [Glycerol-1,3-3H]-oleyl glycerol, one hour incubation

Row | Compound | IC50
18 | Cn1nc2c(c1-c1ccccc1)CCN(C(=O)c1cccc(OC(F)(F)F)c1F)C2 [Example 4, (2-Fluoro-3-(trifluoromethoxy)phenyl)(2-methyl-3-phenyl-2,4,5,7-tetrahydro-6H-pyrazolo[3,4-c]pyridin-6-yl)methanone] | 433 nM
19 | C[C@H]1c2nn(C)c(-c3cc(F)c(F)c(F)c3)c2CCN1C(=O)c1nn(C)c2ncccc12 [Example 230, (S)-(2,7-Dimethyl-3-(3,4,5-trifluorophenyl)-2,4,5,7-tetrahydro-6H-pyrazolo[3,4-c]pyridin-6-yl)(1-methyl-1H-pyrazolo[3,4-b]pyridin-3-yl)methanone] | 23 nM
20 | Cn1nc2c(c1-c1ccccc1)CCN(C(=O)c1n[nH]c3ccccc13)C2 [Example 66, (1H-Indazol-3-yl)(2-methyl-3-phenyl-2,4,5,7-tetrahydro-6H-pyrazolo[3,4-c]pyridin-6-yl)methanone] | 300 nM
21 | Cn1nc2c(c1-c1ccccc1)CCN(C(=O)c1noc3ccccc13)C2 [Example 53, Benzo[d]isoxazol-3-yl(2-methyl-3-phenyl-2,4,5,7-tetrahydro-6H-pyrazolo[3,4-c]pyridin-6-yl)methanone] | 32.2 nM
22 | Cn1nc2c(c1-c1ccccc1)CCN(C(=O)c1ncn(-c3ccccc3)n1)C2 [Example 23, (2-Methyl-3-phenyl-2,4,5,7-tetrahydro-6H-pyrazolo[3,4-c]pyridin-6-yl)(1-phenyl-1H-1,2,4-triazol-3-yl)methanone] | 847 nM
23 | COc1cncc(C(=O)N2CCc3c(nn(C)c3-c3cc(F)c(F)c(F)c3)[C@@H]2C)c1C [Example 313, [(7S)-2,7-Dimethyl-3-(3,4,5-trifluorophenyl)-5,7-dihydro-4H-pyrazolo[3,4-c]pyridin-6-yl]-(5-methoxy-4-methyl-3-pyridyl)methanone] | 38 nM
24 | C[C@H]1c2nn(C)c(-c3cc(F)c(F)c(F)c3)c2CCN1C(=O)c1ccc2c(c1)N(C)C(=O)CO2 [Example 204, (S)-6-(2,7-Dimethyl-3-(3,4,5-trifluorophenyl)-4,5,6,7-tetrahydro-2H-pyrazolo[3,4-c]pyridine-6-carbonyl)-4-methyl-2H-benzo[b][1,4]oxazin-3(4H)-one] | 17.7 nM
25 | C[C@@H]1c2nn(C)c(-c3cccc(Cl)c3)c2CCN1C(=O)c1ccc2nccnc2c1 (single isomer, unassigned) [Example 133] | > 10000 nM
26 | C[C@H]1c2nn(-c3ccccc3)c(-c3ccccc3)c2CCN1C(=O)c1ccc2ncccc2c1 (single isomer, unassigned) [Example 115] | 44.3 nM
27 | Cc1c(F)cc(-c2c3c(nn2C)[C@H](C)N(C(=O)c2ccc4nccnc4c2)CC3)cc1F [Example 190, (S)-(3-(3,5-Difluoro-4-methylphenyl)-2,7-dimethyl-2,4,5,7-tetrahydro-6H-pyrazolo[3,4-c]pyridin-6-yl)(quinoxalin-6-yl)methanone] | 133 nM
28 | COc1c(Cl)cccc1C(=O)N1CCc2c(nn(C)c2-c2ccccc2)C1 [Example 14, (3-Chloro-2-methoxy-phenyl)-(2-methyl-3-phenyl-5,7-dihydro-4H-pyrazolo[3,4-c]pyridin-6-yl)methanone] | 2590 nM
29 | C[C@H]1c2nn(C)c(-c3cc(F)cc(F)c3)c2CCN1C(=O)c1cccc(OCCF)c1Cl [Example 145, [2-Chloro-3-(2-fluoroethoxy)phenyl]-[(7S)-3-(3,5-difluorophenyl)-2,7-dimethyl-5,7-dihydro-4H-pyrazolo[3,4-c]pyridin-6-yl]methanone] | 2.13 nM
30 | C[C@H]1c2nn(C)c(-c3cccc(Cl)c3)c2CCN1C(=O)c1cc2ncccc2o1 [Example 129, (S)-(3-(3-Chlorophenyl)-2,7-dimethyl-2,4,5,7-tetrahydro-6H-pyrazolo[3,4-c]pyridin-6-yl)(furo[3,2-b]pyridin-2-yl)methanone] | 47.2 nM
